Data set [1] addresses T1, Solute carrier family 22 member 3 (Homo sapiens, UniProt O75751).
T1 sequence (O75751 whole entry): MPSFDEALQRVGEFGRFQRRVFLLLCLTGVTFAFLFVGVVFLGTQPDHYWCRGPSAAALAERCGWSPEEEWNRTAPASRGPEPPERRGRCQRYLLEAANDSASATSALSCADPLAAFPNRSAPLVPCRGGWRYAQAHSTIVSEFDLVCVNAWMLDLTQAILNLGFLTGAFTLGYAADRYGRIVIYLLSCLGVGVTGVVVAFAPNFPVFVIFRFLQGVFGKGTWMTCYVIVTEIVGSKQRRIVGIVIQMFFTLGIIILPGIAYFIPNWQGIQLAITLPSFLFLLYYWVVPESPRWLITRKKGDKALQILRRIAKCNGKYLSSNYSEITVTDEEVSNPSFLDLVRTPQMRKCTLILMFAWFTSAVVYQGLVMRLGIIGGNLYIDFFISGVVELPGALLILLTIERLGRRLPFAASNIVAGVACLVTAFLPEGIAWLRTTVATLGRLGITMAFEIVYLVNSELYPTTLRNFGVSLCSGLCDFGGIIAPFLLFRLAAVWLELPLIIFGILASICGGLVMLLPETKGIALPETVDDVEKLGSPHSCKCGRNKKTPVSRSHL
The data set is described as follows: Inhibition of human OCT3-mediated ASP+ uptake expressed in HEK293 cells after 3 mins by fluorescence assay. It is filed as cell-based.

Data set [2] addresses T2, Solute carrier family 22 member 1 (Homo sapiens, UniProt O15245).
T2 sequence (O15245 whole entry): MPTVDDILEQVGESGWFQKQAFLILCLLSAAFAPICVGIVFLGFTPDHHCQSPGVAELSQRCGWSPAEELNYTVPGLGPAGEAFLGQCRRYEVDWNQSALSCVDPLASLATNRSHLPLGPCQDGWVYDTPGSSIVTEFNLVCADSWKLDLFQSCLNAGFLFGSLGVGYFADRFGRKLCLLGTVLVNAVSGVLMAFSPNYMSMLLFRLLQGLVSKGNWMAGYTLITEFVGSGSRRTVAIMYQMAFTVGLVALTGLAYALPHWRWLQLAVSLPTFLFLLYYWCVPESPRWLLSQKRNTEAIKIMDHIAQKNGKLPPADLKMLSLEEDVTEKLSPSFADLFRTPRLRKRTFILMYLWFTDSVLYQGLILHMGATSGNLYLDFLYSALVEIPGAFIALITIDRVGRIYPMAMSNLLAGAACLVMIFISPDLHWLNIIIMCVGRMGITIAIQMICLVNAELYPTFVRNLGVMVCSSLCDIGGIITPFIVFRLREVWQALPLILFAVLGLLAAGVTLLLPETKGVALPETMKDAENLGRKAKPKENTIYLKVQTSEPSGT
The data set is described as follows: Inhibition of human OCT1-mediated ASP+ uptake expressed in HEK293 cells after 3 mins by fluorescence assay. It counts as cell-based.

Data set [3] has as its target T3, Solute carrier family 22 member 2 (Homo sapiens, UniProt O15244).
T3 sequence (O15244 whole entry): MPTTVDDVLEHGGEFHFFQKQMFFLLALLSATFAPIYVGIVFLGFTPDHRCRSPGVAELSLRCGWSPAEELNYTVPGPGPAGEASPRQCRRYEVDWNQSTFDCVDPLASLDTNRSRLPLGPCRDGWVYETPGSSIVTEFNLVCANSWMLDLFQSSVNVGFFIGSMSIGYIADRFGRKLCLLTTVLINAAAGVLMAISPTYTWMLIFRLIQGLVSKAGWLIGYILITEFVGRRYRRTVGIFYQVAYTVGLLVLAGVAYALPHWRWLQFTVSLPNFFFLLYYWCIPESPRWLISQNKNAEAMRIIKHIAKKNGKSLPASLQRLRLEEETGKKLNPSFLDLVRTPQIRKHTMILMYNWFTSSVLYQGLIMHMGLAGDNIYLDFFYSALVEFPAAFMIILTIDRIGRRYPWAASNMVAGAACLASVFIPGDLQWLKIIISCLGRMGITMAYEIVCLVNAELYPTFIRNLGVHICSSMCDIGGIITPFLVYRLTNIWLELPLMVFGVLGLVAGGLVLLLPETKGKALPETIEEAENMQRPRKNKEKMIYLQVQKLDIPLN
Description: Inhibition of human OCT2-mediated ASP+ uptake expressed in HEK293 cells after 3 mins by fluorescence assay. It is filed as cell-based.

The target in data set [4] is T4, Multidrug and toxin extrusion protein 2 (Homo sapiens, UniProt Q86VL8).
T4 sequence (Q86VL8 whole entry): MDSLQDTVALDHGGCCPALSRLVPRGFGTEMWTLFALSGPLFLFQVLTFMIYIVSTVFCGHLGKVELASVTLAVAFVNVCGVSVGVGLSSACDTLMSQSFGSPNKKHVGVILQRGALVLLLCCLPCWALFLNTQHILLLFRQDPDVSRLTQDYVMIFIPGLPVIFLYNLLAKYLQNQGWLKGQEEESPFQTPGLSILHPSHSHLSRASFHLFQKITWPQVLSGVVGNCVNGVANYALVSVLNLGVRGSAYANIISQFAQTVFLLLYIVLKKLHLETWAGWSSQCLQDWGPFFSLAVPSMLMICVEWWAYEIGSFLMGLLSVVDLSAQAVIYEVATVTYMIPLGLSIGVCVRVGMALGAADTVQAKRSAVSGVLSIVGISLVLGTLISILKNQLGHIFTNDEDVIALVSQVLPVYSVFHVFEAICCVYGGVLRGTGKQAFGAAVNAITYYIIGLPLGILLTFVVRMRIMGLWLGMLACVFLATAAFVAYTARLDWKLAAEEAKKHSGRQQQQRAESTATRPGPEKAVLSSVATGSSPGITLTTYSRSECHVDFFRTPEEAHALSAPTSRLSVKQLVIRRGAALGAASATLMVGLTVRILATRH
The data set is described as follows: Inhibition of human MATE2K-mediated ASP+ uptake expressed in HEK293 cells after 1.5 mins by fluorescence assay. It counts as cell-based.

Data set [5] has as its target T5, Multidrug and toxin extrusion protein 1 (Homo sapiens, UniProt Q96FL8).
T5 sequence (Q96FL8 whole entry): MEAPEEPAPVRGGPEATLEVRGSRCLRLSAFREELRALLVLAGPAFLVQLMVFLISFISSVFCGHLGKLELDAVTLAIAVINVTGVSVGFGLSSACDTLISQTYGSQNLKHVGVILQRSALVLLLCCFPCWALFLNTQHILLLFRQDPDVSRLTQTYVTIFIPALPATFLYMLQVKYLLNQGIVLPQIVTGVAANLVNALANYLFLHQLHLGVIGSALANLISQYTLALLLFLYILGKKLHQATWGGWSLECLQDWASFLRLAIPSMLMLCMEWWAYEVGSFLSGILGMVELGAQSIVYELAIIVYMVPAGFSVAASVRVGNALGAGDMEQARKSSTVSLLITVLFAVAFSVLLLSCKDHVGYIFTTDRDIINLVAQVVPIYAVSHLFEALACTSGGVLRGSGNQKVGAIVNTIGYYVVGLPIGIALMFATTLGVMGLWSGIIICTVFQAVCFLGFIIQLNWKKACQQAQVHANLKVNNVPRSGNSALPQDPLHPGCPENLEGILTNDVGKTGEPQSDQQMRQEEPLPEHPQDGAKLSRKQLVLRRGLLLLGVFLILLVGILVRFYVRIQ
The data set is described as follows: (§1) Inhibition of human MATE1-mediated ASP+ uptake expressed in HEK293 cells at 20 uM after 1.5 mins by fluorescence assay. It counts as cell-based. Conditions: hek293, […], 20 µM; call rule not given here.

Data set [6] addresses T4, Multidrug and toxin extrusion protein 2. The data set is described as follows: Inhibition of human MATE2K-mediated ASP+ uptake expressed in HEK293 cells up to 500 uM after 1.5 mins by fluorescence assay. It is filed as cell-based. Particulars: for INH: human, hek293, […].
The target in data set [7] is T6, MATE1 (multidrug and toxin extrusion protein 1) (Homo sapiens, UniProt Q96FL8).
T6 sequence (Q96FL8 whole entry): T5 sequence (Q96FL8 whole entry)
Described as §1. It is filed as cell-based. Particulars: HEK293 cells expressing human MATE1, probe ASP+.

Data set [8] addresses T5, Multidrug and toxin extrusion protein 1. Description: Inhibition of human MATE1-mediated ASP+ uptake expressed in HEK293 cells after 1.5 mins by fluorescence assay. It is filed as cell-based.
Data set [9] in a line: Cmax in iv dosed human. It is filed as ADME, organism-based. Set-up: route intravenous. Conditions: in vivo.
A short description of data set [10]: Cmax in human at 40 mg, po after 7 days. It is filed as ADME, organism-based. Set-up: dose 40 mg, route oral. Conditions: in vivo.
Data set [11] has as its target T5, Multidrug and toxin extrusion protein 1. Description: Inhibition of human MATE1-mediated [14]-metformin uptake expressed in polarized MDCK2 cells after 5 mins by liquid scintillation counting analysis. It counts as cell-based, MDCK-II.
The target is the same in data set [12]. The data set is described as follows: Inhibition of human MATE1-mediated [14]-metformin uptake expressed in HEK293 cells after 1.5 mins by scintillation counting analysis. It counts as cell-based.

The structures appear in SMILES notation.

The term IC50 denotes the concentration that inhibits the measured activity by half. High values mean a need for much substance, low ones inhibition by little substance. Turning to `CC(C)(C)NC(=O)[C@@H]1CN(Cc2cccnc2)CCN1C[C@@H](O)C[C@@H](Cc1ccccc1)C(=O)N[C@H]1c2ccccc2C[C@H]1O`, the IC50 in data set [1] was > 500 µM; in data set [2] it was 208 µM; in [3], 142000 nM.
Turning to `Oc1c(Cl)cc(Cl)cc1Sc1cc(Cl)cc(Cl)c1O` [BITHIONOL], the IC50 in [1] is 5.5 µM; in [2], 3.9 µM; in data set [3] it was 1900 nM; in data set [4], 6.6 µM. This compound also gave an INH in [5] of 87%.
In general, inhibition refers to the change of the read-out against control, counted positive when it falls. A lower inhibition goes with a weak effect. As for `COc1ccccc1OCCNCC(O)COc1cccc2[nH]c3ccccc3c12` (stereo unspecified) [CARVEDILOL], the INH entry in [6] is recorded as “Not Active”. The IC50 in [3] worked out at 7500 nM; in data set [8], 92.4 µM. In data set [7], this compound registered an inhibition at […], 20 µM of 21%.
As to `[H]/N=C(\N/C(=N/[H])NCCCCCCNC(=N)NC(=N)Nc1ccc(Cl)cc1)Nc1ccc(Cl)cc1` [CHLORHEXIDINE], the IC50 in data set [1] turned out to be 0.41 µM; in data set [2], 0.21 µM; in data set [3], 400 nM; in data set [4], 0.5 µM; in [8], 0.7 µM. This compound also showed an INH in data set [5] of 86%.
Consider `NC(N)=Nc1nc(CSCCC(N)=NS(N)(=O)=O)cs1` [FAMOTIDINE], for which the IC50 is 10.7 µM in data set [1]; > 300 µM in data set [2]; 36100 nM in data set [3]; 36.2 µM in [4]; 0.76 µM in [8].
For the compound `CCc1c2c(nc3ccc(OC(=O)N4CCC(N5CCCCC5)CC4)cc13)-c1cc3c(c(=O)n1C2)COC(=O)[C@]3(O)CC` [IRINOTECAN], the IC50 in data set [1] was determined as 74.6 µM; in [2], 20.8 µM; in data set [3], 2700 nM. The compound also yielded an inhibition at […], 20 µM in [7] of 49%.
In the case of `O=C1c2c(O)ccc(O)c2C(=O)c2c(NCCNCCO)ccc(NCCNCCO)c21` [MITOXANTRONE], the IC50 in data set [1] came to 60.5 µM; in [2] it was 43.9 µM; in [3] it was 73300 nM.
As usually defined, the Cmax is the maximum level reached in the sampled fluid or tissue. `Cn1c(NCCN(CCO)CCCc2ccc([N+](=O)[O-])cc2)cc(=O)n(C)c1=O` [NIFEKALANT] showed a Cmax in [9] of 3.43 µM. Moreover, the 50% inhibitory concentration (IC50) was 146 µM in [1], > 300 µM in data set [2] and 10300 nM in [3].
On to `COc1ccc2c(c1OC)C(=O)O[C@@H]2[C@H]1c2c(cc3c(c2OC)OCO3)CCN1C` [NOSCAPINE], for which the INH result in data set [6] is given as “Not Active”. Besides, the IC50 in [3] is 2600 nM. Further, the inhibition at […], 20 µM in [7] turned out to be 13.4%.
As for `Cc1nccn1CC1CCc2c(c3ccccc3n2C)C1=O` (stereo unspecified) [ONDANSETRON], the concentration for half-maximal inhibition (IC50) was 17.4 µM in data set [1] and > 300 µM in data set [2].
In data set [10], `COc1ccnc(C[S+]([O-])c2nc3ccc(OC(F)F)cc3[nH]2)c1OC` (stereo unspecified) [PANTOPRAZOLE] registered a Cmax of 5.45 µM. For the same compound, the IC50 was 2800 nM in data set [11]; 2800 nM in data set [12]; 43.2 µM in data set [6]; 137 µM in data set [1]; > 500 µM in [2]; 1500 nM in [3]. The IC50 is > 500 µM in data set [4] and 43.2 µM in [8].
Take `N=C(N)c1ccc(OCCCCCOc2ccc(C(=N)N)cc2)cc1` [PENTAMIDINE]: the half-inhibitory concentration (IC50) in [1] is 9.5 µM; in [2] it was 22.1 µM; in data set [3], 1200 nM.

These data come from ChEMBL document CHEMBL2311273, “Discovery of potent, selective multidrug and toxin extrusion transporter 1 (MATE1, SLC47A1) inhibitors through prescription drug profiling and computational modeling” (J Med Chem, 2013).
